Publication PMC12467033, “Exploring the Inhibitory Potential of Six Porphyrin Compounds Against α-Amylase and α-Glucosidase Linked to Diabetes” (Biomolecules, 2025)
Several values for one entry are separate records, joined by “and”; a condition that tells them apart may be missing. Equal values may be shown once. Read-outs that look alike come from different tables or passages of the source.

How the values were obtained:
α-amylase [1] = molecular target: T1, α-amylase (Sus scrofa, UniProt P00690); test: FTIR secondary structure analysis of α-AMY complexes; details: enzyme–porphyrin molar ratio 1:2, amide I band
T1 sequence (P00690 16-511): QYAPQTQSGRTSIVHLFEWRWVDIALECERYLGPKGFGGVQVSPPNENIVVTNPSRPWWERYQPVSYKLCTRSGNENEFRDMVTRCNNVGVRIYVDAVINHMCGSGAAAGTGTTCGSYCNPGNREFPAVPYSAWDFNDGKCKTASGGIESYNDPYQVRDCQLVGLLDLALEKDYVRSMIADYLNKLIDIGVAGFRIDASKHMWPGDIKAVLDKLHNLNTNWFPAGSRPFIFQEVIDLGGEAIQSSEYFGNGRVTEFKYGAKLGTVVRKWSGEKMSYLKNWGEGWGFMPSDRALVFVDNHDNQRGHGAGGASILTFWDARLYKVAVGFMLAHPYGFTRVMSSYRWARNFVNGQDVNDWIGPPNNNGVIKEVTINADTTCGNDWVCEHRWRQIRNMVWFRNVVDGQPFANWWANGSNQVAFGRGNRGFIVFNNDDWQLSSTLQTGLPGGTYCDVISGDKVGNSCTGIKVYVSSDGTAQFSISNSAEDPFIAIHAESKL
Text: A molar ratio of 1:2 (α-amylase/α-glucosidase)–porphyrin solution was placed in a cryocentrifugal concentrator and the dried solid sample was mixed with dry KBr and measured using a Nicolet IS-50 FTIR Spectrometer (ThermoFisher, Waltham, MA, USA) with a scanning range of 4000–400 cm^−1 and a resolution of 4 cm^−1. The overlapping peaks in the amide I band (1700–1600 cm^−1) were further analyzed into multiple feature sub-peaks, and quantitative analysis of the relative content of various secondary structures in proteins using curve fitting methods was performed.

α-glucosidase [2] = molecular target: T2, α-glucosidase (Saccharomyces cerevisiae, UniProt P53341); assay type: biochemical; details: for type of inhibition of α-glucosidase: Lineweaver–Burk plots; for reversibility of inhibition of α-glucosidase: enzyme 100–400 U/L, substrate 5 mmol/L; for Kis: enzyme–substrate complex inhibition constant
T2 sequence (P53341 whole entry): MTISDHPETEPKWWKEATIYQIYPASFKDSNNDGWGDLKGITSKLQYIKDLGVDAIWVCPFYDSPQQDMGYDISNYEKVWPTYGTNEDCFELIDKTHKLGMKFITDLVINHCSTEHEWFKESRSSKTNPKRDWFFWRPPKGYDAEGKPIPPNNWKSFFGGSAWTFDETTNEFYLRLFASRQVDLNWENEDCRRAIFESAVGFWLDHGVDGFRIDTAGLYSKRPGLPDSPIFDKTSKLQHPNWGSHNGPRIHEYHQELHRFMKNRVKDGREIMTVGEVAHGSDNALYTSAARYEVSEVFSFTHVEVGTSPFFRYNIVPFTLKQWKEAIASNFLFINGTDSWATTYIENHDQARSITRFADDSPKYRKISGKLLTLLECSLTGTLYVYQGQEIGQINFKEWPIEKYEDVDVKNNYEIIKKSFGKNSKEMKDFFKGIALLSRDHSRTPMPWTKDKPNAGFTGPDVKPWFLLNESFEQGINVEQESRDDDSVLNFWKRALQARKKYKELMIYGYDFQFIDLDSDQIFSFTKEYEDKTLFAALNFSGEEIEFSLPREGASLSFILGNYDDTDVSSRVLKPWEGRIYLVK
Text: In the experiment, the concentration of the fixed substrate Gal-G2-α-CNP/pNPG solution was 5 mmol/L, and the concentrations of the two enzymes (100, 200, 300, 400 U/L) were used to determine the effect of different concentrations of porphyrins on enzyme activity. The concentration of the enzyme was 200 U/L, and the concentration of the substrate Gal-G2-α-CNP/pNPG solution (2.5, 5, 7.5, 10 mmol/L) was used to determine the effect of different concentrations of porphyrins on the enzyme-catalyzed substrate activity.
Upon identifying the type of inhibition, the kinetic equations vary for different inhibition types.
In the formula, v, Vmax, Km, Ki, and Kis represent the reaction rate, maximum reaction rate, Michaelis constant, and free enzyme inhibition constant, respectively, and the binding enzyme inhibition constant. [S] denotes the substrate concentration. [I] denotes the inhibitor concentration.

α-amylase [3] = molecular target: T1, α-amylase; test: Fluorescence quenching, binding and thermodynamics with α-amylase; details: for quenching mechanism of α-amylase fluorescence: Stern–Volmer plots; for quenching mechanism of α-amylase fluorescence / ΔH^0 / ΔS^0: 298–310 K; for ΔH^0 / ΔS^0: Van’t Hoff
Text: In the α-amylase experiment, a series of porphyrins and amylase (200 U/L) were mixed in a volume ratio of 1:1.
(§1) The Stern–Volmer equation [35] was adopted to determine the quenching mechanisms between six porphyrin compounds and both enzymes in the experimental group, with Formula (6):(6) F0/F=1+Ksv[Q]=1+Kqτ0[Q]
(§2) The Stern–Volmer equation was adapted based on experimental data to more accurately characterize the quenching behavior [36], with Formula (7):(7) F0/F=e^Ksv[Q]=e^Kqτ0[Q]
(§3) In the formula, the fluorescence quenching ratio was calculated as F0/F, where F0 corresponds to the emission intensity of pure α-amylase solution (control) and F denotes the intensity measured after the incremental addition of porphyrin ligands. KSV and Kq denote the Stern–Volmer quenching constant and the bimolecular quenching rate constant, respectively, τ0 (10^−8 s) is the average fluorescence lifetime of the fluorophore in the absence of quencher, and [Q] indicates the concentration of porphyrin compounds.
(§4) Due to the presence of an internal filtration effect, a decrease in the fluorescence intensity of the system may occur. Therefore, all fluorescence data were corrected using Formula (8) to eliminate the internal filtration effect.(8) Fcor=Fobse^(Aex+Aem)/2
(§5) The evaluation of the interaction forces between porphyrin compounds and the two enzymes can be achieved by calculating thermodynamic parameters. When both ΔH^0 and ΔS^0 are positive, the predominant interaction force is hydrophobic. When both ΔH^0 and ΔS^0 are negative, the main forces are hydrogen bonding and van der Waals forces. When ΔH^0 < 0 and ΔS^0 > 0, the primary interaction is electrostatic attraction.
(§6) The thermodynamic parameters were calculated using Formulas (9) and (10), and then the Van’t Hoff plot for the interactions between the porphyrin compounds and the two enzymes was generated by plotting lnKa on the Y-axis versus 1/T on the X-axis.(9) lnKa=−ΔH^0/RT+ΔS^0/R (10) ΔG^0=ΔH^0−TΔS^0=−RTlnKa

α-glucosidase [4] = molecular target: T2, α-glucosidase; test: Fluorescence quenching, binding and thermodynamics with α-glucosidase; details: for binding constants K: 310 K; for quenching mechanism of α-glucosidase fluorescence: Stern–Volmer plots; for quenching mechanism of α-glucosidase fluorescence / ΔH^0 / ΔS^0: 298–310 K; for ΔH^0 / ΔS^0: Van’t Hoff
Description: In the α-amylase experiment, a series of porphyrins and amylase (200 U/L) were mixed in a volume ratio of 1:1. In the α-glucosidase experiment, the glucosidase concentration was 400 U/L, mixed in a volume ratio of 1:1; the samples were maintained at three different temperatures (298, 304, and 310 K) for 30 min, with excitation at 280 nm and emission scanning from 300 to 500 nm.
as §1, §2, §3, §4, §5, §6

α-amylase [5] = molecular target: T1, α-amylase; test: Three-dimensional fluorescence spectroscopy of α-amylase complexes; details: 298 K; TAPP 2.5, THPP 10, TCPP 10, Fe–TCPP 12.5, Ni–TCPP 17.5, Cu–TCPP 10 μg/mL
Description: At 298 K, with excitation wavelengths ranging from 200 to 600 nm (2 nm increments) and emission wavelengths from 200 to 600 nm, the influence of small molecules on enzyme conformation was assessed by examining peaks in 3D fluorescence spectra [41].

iron (III) meso-tetra (4-carboxyphenyl) porphyrin chloride [Fe–TCPP]
Random Coil (α-amylase [1]): 22.59 ± 0.03%
α-Helix (α-amylase [1]): 21.77 ± 0.07%
β-Antiparallel (α-amylase [1]): 8.76 ± 0.02%
β-Sheet (α-amylase [1]): 12.86 ± 0.04%
β-Turn (α-amylase [1]): 34.02 ± 0.08%
Km (α-glucosidase [2]): 2.6958 ± 0.0821 µg/mL and 3.3979 ± 0.1076 µg/mL and 3.9231 ± 0.1098 µg/mL and 4.1566 ± 0.0981 µg/mL and 4.3847 ± 0.0694 µg/mL
Vmax (α-glucosidase [2]; C 16 μg/mL): 0.0771 ± 0.0023 ΔOD/min
Vmax (α-glucosidase [2]; C 32 μg/mL): 0.0601 ± 0.0019 ΔOD/min
Vmax (α-glucosidase [2]; C 48 μg/mL): 0.0502 ± 0.0014 ΔOD/min
Vmax (α-glucosidase [2]; C 64 μg/mL): 0.0416 ± 0.0010 ΔOD/min
Vmax (α-glucosidase [2]; C 80 μg/mL): 0.0361 ± 0.0006 ΔOD/min
type of inhibition of α-glucosidase (α-glucosidase [2]): mixed type
reversibility of inhibition of α-glucosidase (α-glucosidase [2]): reversible inhibition
Kis (α-glucosidase [2]): 40.4085 ± 0.1084 µg/mL
Ki (α-glucosidase [2]; free enzyme inhibition constant): 9.8917 ± 0.0514 µg/mL
quenching mechanism of α-amylase fluorescence (α-amylase [3]): mixed quenching
Ka (binding constant) (α-amylase [3]; T 298 K): 944.30 ± 0.18 ×10^5 L/mol
Kq (α-amylase [3]; T 298 K): 4.32 ± 0.06 ×10^12 L/mol/s
Ksv (α-amylase [3]; T 298 K): 4.32 ± 0.06 ×10^4 L/mol
n (number of binding sites) (α-amylase [3]; T 298 K): 1.65
ΔG^0 (α-amylase [3]; T 298 K): -10.87 ± 0.017 kcal/mol
Ka (binding constant) (α-amylase [3]; T 304 K): 40.38 ± 0.09 ×10^5 L/mol
Kq (α-amylase [3]; T 304 K): 3.36 ± 0.06 ×10^12 L/mol/s
Ksv (α-amylase [3]; T 304 K): 3.36 ± 0.06 ×10^4 L/mol
n (number of binding sites) (α-amylase [3]; T 304 K): 1.38
ΔG^0 (α-amylase [3]; T 304 K): -9.19 ± 0.014 kcal/mol
Ka (binding constant) (α-amylase [3]; T 310 K): 2.13 ± 0.05 ×10^5 L/mol
Kq (α-amylase [3]; T 310 K): 3.29 ± 0.08 ×10^12 L/mol/s
Ksv (α-amylase [3]; T 310 K): 3.29 ± 0.08 ×10^4 L/mol
n (number of binding sites) (α-amylase [3]; T 310 K): 1.05
ΔG^0 (α-amylase [3]; T 310 K): -7.557 ± 0.019 kcal/mol
ΔH^0 (α-amylase [3]): -93.248 ± 0.0406 kcal/mol
ΔS^0 (α-amylase [3]): −1156.68 ± 0.13 J/mol/k
binding constants K (α-glucosidase [4]): (1.02 ± 0.02) × 10^5 L·mol^−1
quenching mechanism of α-glucosidase fluorescence (α-glucosidase [4]): static quenching
Ka (binding constant) (α-glucosidase [4]; T 298 K): 1.65 ± 0.03 ×10^5 L/mol
Kq (α-glucosidase [4]; T 298 K): 14.52 ± 0.07 ×10^12 L/mol/s
Ksv (α-glucosidase [4]; T 298 K): 14.52 ± 0.07 ×10^4 L/mol
n (number of binding sites) (α-glucosidase [4]; T 298 K): 1.01
ΔG^0 (α-glucosidase [4]; T 298 K): -7.113 ± 0.012 kcal/mol
Ka (binding constant) (α-glucosidase [4]; T 304 K): 1.26 ± 0.03 ×10^5 L/mol
Kq (α-glucosidase [4]; T 304 K): 13.18 ± 0.05 ×10^12 L/mol/s
Ksv (α-glucosidase [4]; T 304 K): 13.18 ± 0.05 ×10^4 L/mol
n (number of binding sites) (α-glucosidase [4]; T 304 K): 1.00
ΔG^0 (α-glucosidase [4]; T 304 K): -7.094 ± 0.017 kcal/mol
Ka (binding constant) (α-glucosidase [4]; T 310 K): 1.02 ± 0.02 ×10^5 L/mol
Kq (α-glucosidase [4]; T 310 K): 12.20 ± 0.07 ×10^12 L/mol/s
Ksv (α-glucosidase [4]; T 310 K): 12.20 ± 0.07 ×10^4 L/mol
n (number of binding sites) (α-glucosidase [4]; T 310 K): 0.98
ΔG^0 (α-glucosidase [4]; T 310 K): -7.103 ± 0.014 kcal/mol
ΔH^0 (α-glucosidase [4]): -7.385 ± 0.014 kcal/mol
ΔS^0 (α-glucosidase [4]): −3.88 ± 0.01 J/mol/k
Peak 1 Fluorescence Intensity (α-amylase [5]): 270.8
Peak 2 Fluorescence Intensity (α-amylase [5]): 28.26

O=C(O)c1ccc(-c2c3nc(c(-c4ccc(C(=O)O)cc4)c4ccc([nH]4)c(-c4ccc(C(=O)O)cc4)c4nc(c(-c5ccc(C(=O)O)cc5)c5ccc2[nH]5)C=C4)C=C3)cc1 [TCPP]
Random Coil (α-amylase [1]): 19.84 ± 0.06%
α-Helix (α-amylase [1]): 10.24 ± 0.02%
β-Antiparallel (α-amylase [1]): 11.75 ± 0.03%
β-Sheet (α-amylase [1]): 18.51 ± 0.05%
β-Turn (α-amylase [1]): 39.66 ± 0.09%
Vmax (α-glucosidase [2]; C 5 μg/mL): 0.1369 ± 0.0049 ΔOD/min
Vmax (α-glucosidase [2]; C 25 μg/mL): 0.1016 ± 0.0014 ΔOD/min
Vmax (α-glucosidase [2]; C 50 μg/mL): 0.0745 ± 0.0019 ΔOD/min
Vmax (α-glucosidase [2]; C 100 μg/mL): 0.0516 ± 0.0017 ΔOD/min
Vmax (α-glucosidase [2]; C 150 μg/mL): 0.0389 ± 0.0006 ΔOD/min
type of inhibition of α-glucosidase (α-glucosidase [2]): mixed type
reversibility of inhibition of α-glucosidase (α-glucosidase [2]): reversible inhibition
Kis (α-glucosidase [2]): 52.5334 ± 0.1408 µg/mL
quenching mechanism of α-amylase fluorescence (α-amylase [3]): pure static quenching
Kq (α-amylase [3]; T 298 K): 4.04 ± 0.01 ×10^12 L/mol/s
Ksv (α-amylase [3]; T 298 K): 4.04 ± 0.01 ×10^4 L/mol
n (number of binding sites) (α-amylase [3]; T 298 K): 1.36
ΔG^0 (α-amylase [3]; T 298 K): -8.315 ± 0.022 kcal/mol
Kq (α-amylase [3]; T 304 K): 3.55 ± 0.08 ×10^12 L/mol/s
Ksv (α-amylase [3]; T 304 K): 3.55 ± 0.08 ×10^4 L/mol
n (number of binding sites) (α-amylase [3]; T 304 K): 1.28
ΔG^0 (α-amylase [3]; T 304 K): -7.928 ± 0.017 kcal/mol
Kq (α-amylase [3]; T 310 K): 3.01 ± 0.07 ×10^12 L/mol/s
Ksv (α-amylase [3]; T 310 K): 3.01 ± 0.07 ×10^4 L/mol
n (number of binding sites) (α-amylase [3]; T 310 K): 1.20
ΔG^0 (α-amylase [3]; T 310 K): -7.572 ± 0.017 kcal/mol
ΔH^0 (α-amylase [3]): -26.778 ± 0.014 kcal/mol
ΔS^0 (α-amylase [3]): −259.31 ± 0.09 J/mol/k
binding constants K (α-glucosidase [4]): (0.97 ± 0.02) × 10^5 L·mol^−1
quenching mechanism of α-glucosidase fluorescence (α-glucosidase [4]): static quenching
Kq (α-glucosidase [4]; T 298 K): 7.45 ± 0.04 ×10^12 L/mol/s
Ksv (α-glucosidase [4]; T 298 K): 7.45 ± 0.04 ×10^4 L/mol
n (number of binding sites) (α-glucosidase [4]; T 298 K): 1.30
ΔG^0 (α-glucosidase [4]; T 298 K): -8.368 ± 0.014 kcal/mol
Kq (α-glucosidase [4]; T 304 K): 4.90 ± 0.02 ×10^12 L/mol/s
Ksv (α-glucosidase [4]; T 304 K): 4.90 ± 0.02 ×10^4 L/mol
n (number of binding sites) (α-glucosidase [4]; T 304 K): 1.19
ΔG^0 (α-glucosidase [4]; T 304 K): -7.651 ± 0.017 kcal/mol
Kq (α-glucosidase [4]; T 310 K): 4.22 ± 0.09 ×10^12 L/mol/s
Ksv (α-glucosidase [4]; T 310 K): 4.22 ± 0.09 ×10^4 L/mol
n (number of binding sites) (α-glucosidase [4]; T 310 K): 1.07
ΔG^0 (α-glucosidase [4]; T 310 K): -7.075 ± 0.012 kcal/mol
ΔH^0 (α-glucosidase [4]): -40.504 ± 0.0239 kcal/mol
ΔS^0 (α-glucosidase [4]): −451.52 ± 0.12 J/mol/k
Peak 1 Fluorescence Intensity (α-amylase [5]): 461.6
Peak 2 Fluorescence Intensity (α-amylase [5]): 58.06
